Measured values from the METLIN SMRT retention time set (Domingo-Almenara et al. 2019).

Assay: gradient 5% acetonitrile 3 min, to 50% in 2 min, to 85% in 15 min, held 3 min, 100 µL/min
Conditions: column: Zorbax Extend-C18 2.1 x 50 mm; eluents: water / acetonitrile, 0.1% formic acid
In short: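 A Zorbax Extend-C18 column (2.1 × 50 mm, 1.8 μm) run at 100 μL/min with water and acetonitrile, both containing 0.1% formic acid, separated mixtures of ~100 pure standards. The HPLC was coupled to a quadrupole time-of-flight mass spectrometer operated in positive and negative ionization mode, with dead and dwell volumes of 40 μL and 900 μL. Each retention time was taken from a computationally picked adduct peak that was then manually inspected.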

RP-LC retention time [s]	SMILES
727	O=C(NCc1cccs1)c1cc(=O)c(OCc2ccccc2)co1
627	O=S(=O)(c1cccc2nsnc12)N1CCCn2nc(-c3cccnc3)cc2C1
811	O=C(Nc1ccccc1F)N1CCC(N2CCN(Cc3ccc(F)cc3)C2=O)CC1
1150	Cn1nc(-c2nnc(-c3ccccc3)o2)c2c1CCN(S(=O)(=O)c1ccc(C(C)(C)C)cc1)C2
612	NS(=O)(=O)c1ccc(CCNC(=O)c2n[nH]c3ccccc23)cc1
612	CCCNC(=O)NCCc1cn(CC)c2ncccc12
586	Cn1nc2n(c1=O)CCC(NC(=O)c1cc(C3CC3)[nH]n1)CC2 (centres undefined)
832	O=C(C1CCN(c2ncnc3c2oc2ccccc23)CC1)N1CCN(c2ccccc2F)CC1
848	CC(NC(=O)CC1Sc2ccc(C(F)(F)F)cc2NC1=O)c1ccccc1 (centres undefined)
688	O=C(Cn1c(=O)c2cccn2c2ccccc21)NC1CC1
1060	Cc1cccc(N2CCN(C(=O)c3sc4ncccc4c3-n3cccc3)CC2)c1
539	O=C(c1ccoc1)N1CCC(N2CC(F)(F)C[C@H]2CO)CC1
697	O=C(CCCNC(=O)c1cc(-c2cccs2)[nH]n1)Nc1cccc2cccnc12
733	O=C(Nc1c(-c2ccc(F)cc2)nc2ccccn12)c1ccc(Cl)c([N+](=O)[O-])c1
895	Cc1cc(Br)ccc1NC(=O)C1CCCN(c2ncnc3c2nc2n3CCCCC2)C1 (centres undefined)
843	O=S(=O)(c1cc(-c2ccno2)cs1)N1CCN(c2ncccn2)CC1
768	CCN1C(=O)COc2ccc(-c3nc(NC(=O)c4ccncc4)sc3C)cc21
1160	O=C(NC1CCCCCC1)C1CCCN(c2ncc(-c3cccc(F)c3)cn2)C1 (centres undefined)
809	Cc1nnc(-c2coc(S(=O)(=O)N3CCCCC3C)c2)o1 (centres undefined)
674	NC1=N[C@@]2(c3cc(NC(=O)c4ccc(F)cn4)ccc3F)COC[C@H]2CS1
996	CN(C)S(=O)(=O)c1ccc2c(c1)N(CC(=O)NCCC1=CCCCC1)C(=O)C1CCCCN21 (centres undefined)
966	Cc1ccc(CNC(=O)CN2C(=O)C3CCCCN3c3ccc(S(=O)(=O)N4CCCC4)cc32)cc1 (centres undefined)
777	Cc1noc(/C=C\c2ccc(S(=O)(=O)N3CCOCC3)cc2)c1NC(=O)C1CC1

RP-LC retention time [s]	SMILES
810	CCS(=O)(=O)c1ccc2c(c1)N(Cc1nc(-c3ccccc3OC)no1)C(=O)CO2
1140	COc1cccc(-c2cc3c(=O)n(Cc4nc(-c5ccc(Br)cc5)no4)ccn3n2)c1
744	O=C(CCCc1nnc2c(=O)n(-c3ccc(Cl)cc3)ccn12)NCCc1c[nH]c2ccccc12
614	O=C(NCc1cccc(F)c1)C1CCN(c2cncnc2N2CCOCC2)CC1
624	CCc1nnc(C2CCN(C(=O)c3cc(C)on3)CC2)s1
770	COc1ccc(-c2csc(NC(=O)Nc3c(F)cccc3F)n2)cc1OC
868	Cc1cc(C)cc(C(=O)NC(c2ccccc2)c2nnc(N3CCCC3)o2)c1 (centres undefined)
965	CCOC(=O)c1noc2ncnc(NCc3ccccc3Cl)c12
876	Cc1cccc(-n2c(N3CCCC(C(=O)NCc4cccs4)C3)nc3ccsc3c2=O)c1 (centres undefined)
887	Clc1ccc(-c2nc(NC3CCCC3)c3ccccc3n2)cc1
1130	CCOc1cccc(-c2noc(CN3C(=O)COc4cc(C)ccc43)n2)c1
630	COCC(=O)NC1CCC12CCN(C(=O)NC(C)C)CC2 (centres undefined)
1080	Cc1ccc(-c2noc(C3CCCN3C(=O)C3CCN(S(=O)(=O)c4ccc(C)cc4)CC3)n2)cc1 (centres undefined)
1060	CCc1nc2cc(-c3noc(COc4ccccc4)n3)ccc2o1
687	CCCn1cnc2cc(-c3noc(CNC(=O)c4ccc(C)cc4)n3)ccc21
976	O=C(Nc1nccs1)C1CCN(c2nc(-c3ccc(Cl)cc3)no2)CC1
883	CNS(=O)(=O)c1ccc(Cl)c(-c2nnc(-c3ccc(OC)cc3)o2)c1
730	COc1ccccc1Nc1c(-c2ccc(C(=O)O)cc2)nc2cnccn12
848	O=C(NC1CC1)c1ccccc1OCC1CCN(C(=O)c2cc(F)cc(F)c2)CC1
852	Cc1nnc(-c2cc(C)n(CC(=O)Nc3ccc(C)c(Cl)c3)c2C)o1
785	O=C(NC1CC1)C1CCCN(c2ccc(Sc3ccc(Br)cc3)nn2)C1 (centres undefined)
888	O=C(Cn1ccc2ccn(Cc3ccccc3)c2c1=O)NCc1ccccc1Cl
936	CCOC(=O)c1cccc(NC(=O)c2cc(C)nn2-c2ccccc2)c1

RP-LC retention time [s]	SMILES
664	COc1ccc(CNC(=O)c2[nH]c3cc(C)sc3c2CN(C)C)cc1
613	CCCN(C)C(=O)c1c(C)oc2c1CN(C(=O)COC)CC2
634	CC(C)CNC(=O)N1CCN(Cc2nc3cccnc3n2-c2cccc(F)c2)CC1
720	CC(=O)N1CCc2ccccc2C1C(=O)NCc1cccs1 (centres undefined)
636	COc1ccc(-c2nc(C)cc(C)c2CNS(=O)(=O)c2ccc(C#N)cc2)cc1
556	COc1nccnc1N1CCC(NC(=O)Cc2cccnc2)C1 (centres undefined)
827	COc1cccc(-c2nc3nc(C)c(CCC(=O)NC4CCCCC4)c(C)n3n2)c1
897	CCOC(=O)c1noc2nc(C)nc(NCCCN(C)c3ccccc3)c12
602	CC(C)n1c(N2CCN(C(=O)c3cccnc3)CC2)cc(=O)n(C(C)C)c1=O
786	Cc1cc(C(=O)N2c3ccccc3CC2c2nnc(C3CC3)o2)nn1C (centres undefined)
720	CC(C)(C)NC(=O)N1CCC2(CC1)CC(Cc1nc(-c3cnccn3)no1)CCO2 (centres undefined)
907	CCc1nn2c(CNS(=O)(=O)c3ccccc3F)c(-c3ccccc3)nc2s1
711	CCNC(=O)c1cc2c(-c3cc(OCCN4CCCC4)c(Cl)cc3Cl)nc(N)nc2s1
755	COc1cccc(-c2nc3cnccn3c2NCCC(=O)NC2CCCCCC2)c1
1030	CCCN1C(=O)CCc2cc(NS(=O)(=O)c3ccc(CC(C)C)cc3)ccc21
690	Cc1ccn2c(Nc3ccc4c(c3)OCCO4)c(-c3ccccc3)nc2c1
1290	Fc1cccc(/C=N/N=C/c2cccc(F)c2)c1
820	CC(C)c1ccc(Nc2c(-c3ccc(N(C)C)cc3)nc3ncccn23)cc1
974	Cc1cc(C)cc(Oc2nccn3c(=O)n(CC(=O)Nc4cc(C)ccc4C)nc23)c1
689	CCc1ccc(Oc2cc(N3CCC(C(=O)N4CCN(c5ccccn5)CC4)CC3)ncn2)cc1
629	CCCn1cnc2cc(-c3noc(C(C)NC(=O)c4ccco4)n3)ccc21 (centres undefined)
1000	Cc1cc(C)nc(NS(=O)(=O)c2ccc(Nc3nc(-c4ccc(F)c(C)c4)cs3)cc2)n1
1110	CC(C)c1ccc(NC(=O)C2CCN(S(C)(=O)=O)c3cc(Cl)ccc3O2)cc1 (centres undefined)

RP-LC retention time [s]	SMILES
643	CCCc1noc(-c2ccnc(-n3ncc(C(=O)N4CCN(CC)CC4)c3C)c2)n1
692	O=C(NC1CCN(c2cc(-c3ccccc3)[nH]n2)C1)c1ccccc1Cl (centres undefined)
579	Cc1ncc2c(SCC(=O)NCc3ccc(F)cc3F)ncnc2n1
874	CCOc1ccc2nc(NC(=O)Cc3csc4nc(-c5ccccc5)cn34)sc2c1
733	COC(=O)c1cnc2nc(C)ccc2c1NCc1cccc(Cl)c1
844	Cc1ccc(C2Cn3nnc(C(=O)N4CCN(C(=O)c5ccco5)CC4)c3CO2)cc1 (centres undefined)
1020	Cc1ccc(C)c(NC(=O)N2CCCC(C)(C(=O)NCc3ccccc3C)C2)c1 (centres undefined)
881	CCCN(CC1CCOC1)S(=O)(=O)c1cccc(OC)c1 (centres undefined)
732	COc1ccccc1CNC1=NCCNC12CCN(S(=O)(=O)c1ccccc1C)CC2
583	COc1ccc(N2CCN(CCNC(=O)c3ccc(Br)o3)CC2)cc1
748	COc1ccc(OC)c2sc(NC(=O)c3cc(C)on3)nc12
808	COc1ccc(N2C=C(C(=O)N3CCCC3)S(=O)(=O)c3ccccc32)cc1Cl
548	CCOc1cccc(CNC(=O)c2nc3cccnc3n(CC)c2=O)c1
902	CCn1cc(-c2nc(C)c(C(=O)NCc3ccc(OC)cc3)s2)c2cccnc21
821	Cc1ccccc1CN1CC(F)(F)C[C@H]1COc1ccncc1
970	Cc1cc(N2CCN(S(=O)(=O)c3ccc(-c4ccccc4)cc3)CC2)nc(NC2CCCCC2)n1
824	Cc1ccc(CNC(=O)c2ccc(-c3ccsc3)nc2)o1
742	Cc1ccc(Nc2nc(-c3cccnc3)nc3ccccc23)cc1
689	CSc1ccc(CNC(=O)c2[nH]c3cc(C)sc3c2CN(C)C)cc1
742	Cc1nc(-c2cc(S(=O)(=O)N3CCC(C(=O)N4CCOCC4)CC3)c(C)s2)no1
